Data: PubChem BioAssay (NCI)
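1) Cells in 96-well plates. 2) Compound, 48 h, 5 concentrations. 3) Linear interpolation between surrounding doses. 4) Unreached endpoint = highest concentration. GI50 is the concentration that inhibits growth by half. The concentration for full growth arrest is given as TGI.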

What was measured:
Assay in all cases: DTP human tumour cell line panel, 48 h
CAKI-1 renal = system: CAKI-1 renal
OVCAR-8 ovarian = system: OVCAR-8 ovarian
COLO 205 colon = system: COLO 205 colon
HCC-2998 colon = system: HCC-2998 colon
HCT-116 colon = system: HCT-116 colon
MOLT-4 leukemia = system: MOLT-4 leukemia
NCI-H460 lung = system: NCI-H460 lung
HCT-15 colon = system: HCT-15 colon
LOX IMVI melanoma = system: LOX IMVI melanoma
NCI-H226 lung = system: NCI-H226 lung

| SMILES | TGI (CAKI-1 renal) [µM] | TGI (OVCAR-8 ovarian) [µM] | TGI (COLO 205 colon) [µM] | TGI (HCC-2998 colon) [µM] | TGI (HCT-116 colon) [µM] | TGI (MOLT-4 leukemia) [µM] | TGI (NCI-H460 lung) [µM] | TGI (HCT-15 colon) [µM] | TGI (LOX IMVI melanoma) [µM] | GI50 (CAKI-1 renal) [µM] | GI50 (OVCAR-8 ovarian) [µM] | GI50 (COLO 205 colon) [µM] | GI50 (HCT-116 colon) [µM] | GI50 (NCI-H460 lung) [µM] | GI50 (HCT-15 colon) [µM] | GI50 (LOX IMVI melanoma) [µM] | GI50 (HCC-2998 colon) [µM] | GI50 (MOLT-4 leukemia) [µM] | TGI (NCI-H226 lung) [µM] | GI50 (NCI-H226 lung) [µM] |
| --- | --- | --- | --- | --- | --- | --- | --- | --- | --- | --- | --- | --- | --- | --- | --- | --- | --- | --- | --- | --- |
| CC1(C)CCC(Sc2ccccc2)O1 (stereo not drawn) | > 100 | > 100 | > 100 | > 100 | > 100 | > 100 | > 100 | > 100 | > 100 | – | – | – | – | – | – | – | – | – | – | – |
| COc1cccc(/C=C/C(=O)c2ccc3cc(OC)ccc3c2)c1 | > 50 | 33.3 | 17 | – | 16.2 | – | > 50 | 30.8 | 14.5 | 16.4 | 10.6 | 8.13 | 9.21 | 25.2 | 9.73 | 2.92 | – | – | – | – |
| Cn1c(CBr)nc2c1C(=O)c1nc(CBr)[nH]c(=O)c1C2=O | > 100 | > 100 | > 100 | – | > 100 | > 100 | > 100 | > 100 | > 100 | – | – | – | – | – | – | – | – | – | – | – |
| COc1cc[c]([Sn]([c]2ccc(OC)cc2)([c]2ccc(OC)cc2)[c]2ccc(OC)cc2)cc1 | 69.2 | > 100 | 41.8 | 50.5 | – | 39 | > 100 | > 100 | 29.4 | 10.9 | 27.1 | 18.3 | 8.92 | 30.5 | > 100 | 13.6 | 17.8 | 10.7 | – | – |
| CCCNC(=O)Nc1c([N+](=O)[O-])cc(C(F)(F)F)cc1[N+](=O)[O-] | > 100 | > 100 | – | – | > 100 | > 100 | > 100 | > 100 | > 100 | – | – | – | – | – | – | – | – | – | > 100 | – |
| NC(=O)c1ccc2c(c1)-c1nc-2nc2[n-]c(nc3nc(nc4[n-]c(n1)c1ccc(C(N)=O)cc41)-c1ccc(C(N)=O)cc1-3)c1ccc(C(N)=O)cc21.[Co+2] | > 50 | > 50 | > 50 | – | > 50 | > 50 | > 50 | > 50 | > 50 | > 50 | > 50 | > 50 | > 50 | > 50 | > 50 | 16.1 | – | > 50 | > 50 | > 50 |
| CCOC(=O)c1c(-c2ccccc2)[n+](=O)c2cc(Cl)c(Cl)cc2n1[O-] | 3.2 | 8.01 | 23.6 | – | 11.1 | > 100 | 46.7 | 21 | 2.91 | 1.64 | 2.8 | 3.85 | 2.57 | 18.9 | 6.55 | 1.56 | – | > 100 | – | – |
| O=C1C(c2ccccc2)=C(c2ccccc2)C(c2ccc(Cc3ccc(C4=C(c5ccccc5)C(=O)C(c5ccccc5)=C4c4ccccc4)cc3)cc2)=C1c1ccccc1 | > 100 | > 100 | > 100 | – | > 100 | > 100 | > 100 | > 100 | > 100 | – | – | – | – | – | – | – | – | – | > 100 | – |
| CCOC(=O)CSc1cc(Cl)c(C)cc1S(=O)(=O)/N=C(/N=C/c1ccc([N+](=O)[O-])s1)NNC | 49.3 | 80.2 | 34.8 | – | 26.3 | 44.3 | > 100 | 47.8 | 31.6 | 17.6 | 32.7 | 16 | 13.5 | 35.1 | 18.8 | 17.8 | – | 16.7 | 75.8 | 33.1 |
| Nc1ccc2n[se]nc2c1 | > 100 | > 100 | – | > 100 | > 100 | > 100 | > 100 | > 100 | > 100 | – | – | – | – | – | – | – | – | – | – | – |
| CCN(CC)c1ccc(/C=C/C(=O)c2ccc(Nc3nc(Nc4ccccc4)nc(Nc4ccccc4)n3)cc2)cc1 | 38 | > 100 | 21.9 | – | > 100 | 12 | 17.6 | > 100 | > 100 | 5.17 | 9.95 | 1.17 | 2.47 | 2.55 | 2.54 | 6.87 | – | 2.08 | > 100 | 26.9 |
| O=C1c2ccccc2C(=O)c2cc3c(cc21)CS(=O)C3 | > 100 | > 100 | > 100 | > 100 | – | > 100 | > 100 | – | > 100 | – | – | – | – | – | – | – | – | – | – | – |
| COc1cccc2c1-c1nc(N)c3c(OC)cccc3c1C2=O | > 100 | > 100 | > 100 | – | > 100 | > 100 | – | > 100 | > 100 | – | – | – | – | – | – | – | – | – | > 100 | – |
| CC(=O)C1CCN(c2ccccc2)C1 (stereo not drawn) | > 100 | > 100 | – | – | > 100 | > 100 | > 100 | – | – | – | – | – | – | – | – | – | – | – | > 100 | – |
| COc1cc([N+](=O)[O-])c(OC)cc1-c1nc2sc(C)c(C)n2c1/C(N)=N/C(=N)N | > 100 | – | > 100 | > 100 | > 100 | > 100 | > 100 | > 100 | – | > 100 | – | 13.6 | > 100 | > 100 | > 100 | – | > 100 | > 100 | – | – |
